Results published in BindingDB's records for doi:10.1016/j.bmcl.2005.04.079 (F. Hoffmann-La Roche, 2005).

Biological target: T1, Serine protease 1 (Bos taurus, UniProt P00760)
T1 sequence (P00760 whole entry): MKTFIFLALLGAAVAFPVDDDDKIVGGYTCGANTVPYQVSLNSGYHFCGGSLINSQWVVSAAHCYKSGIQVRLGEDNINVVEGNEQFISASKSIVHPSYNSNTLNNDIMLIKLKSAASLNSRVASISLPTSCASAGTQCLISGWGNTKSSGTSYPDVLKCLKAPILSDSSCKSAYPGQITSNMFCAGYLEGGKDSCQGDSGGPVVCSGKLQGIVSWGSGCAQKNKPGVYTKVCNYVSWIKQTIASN
Experiment: Serine Protease Inhibition Assay
Procedure: The enzyme reactions were initiated by the addition of substrate, and the color developed from the release of p-nitroanilide from each chromogenic substrate was monitored continuously for 5 min at 405 nm on a microtiter plate reader. […] The apparent Ki values were then calculated according to the Cheng-Prusoff equation: Ki = IC50/1 + [S]/Km.

Ki: > 68 µM
SMILES: CCOc1cc(-c2ccccc2)cc(C(Nc2ccc(C(=N)N)cc2)C(=O)O)c1 (stereo unspecified) [2-[(4-carbamimidoylphenyl)amino]-2-(3-ethoxy-5-phenylphenyl)acetic acid]
